The values below come from article PMC2691528 (European Journal of Nuclear Medicine and Molecular Imaging, 2009).

Each structure is given as a SMILES string. “Also recorded” adds a separate entry of the source. A value given as a limit tells only on which side of the number the result lay.

The nature of series [1]: Ex vivo biodistribution of 11C-SA4503 in C6 glioma-bearing Wistar rats. The settings on record: for SUV of 11C, C6 tumour / SUV of 11C, Cerebellum / SUV of 11C, Cerebral cortex: 60 min after injection.
Series [2] has as its target cellular sigma receptors (C6 rat glioma cells) (Rattus norvegicus, UniProt Q9R0C9). Kind of series: Competition with 11C-SA4503 binding to intact C6 glioma cell monolayers. The note with it: for competition with 11C-SA4503 for binding to cellular sigma receptors: 50 µM competitor added to normal growth medium (DMEM with 7.5% FCS); for reduction of 11C-SA4503 radioligand binding to C6 cells: 50 µM competitor, steroid-free medium; for rank order of potency as competitor of 11C-SA4503 binding: C6 cells, both normal and steroid-depleted medium, 50 µM.

The test system of a further series is Plasma progesterone. The settings on record: female rats; cited from earlier work.
Series [3] deals with sigma-1 receptors in tumour and brain (Rattus norvegicus, UniProt Q9R0C9). Kind of series: microPET scanning of 11C-SA4503 in C6 glioma-bearing Wistar rats.
Series [4] concerns endogenous steroid levels in the brain (progesterone, pregnenolone). The note with it: male rats, sodium pentobarbital 0.2 mmol/kg i.p.; cited from earlier work.
[5] abbreviates: prolonged pentobarbital anaesthesia, n = 5.
The mark [6] stands for this setting: prolonged pentobarbital anaesthesia vs control.
Setting [7] is: progesterone 3 x 10 mg i.p. in arachid oil vs arachid oil.

Chain of sigma-1 receptors in tumour and brain (Q9R0C9 whole entry): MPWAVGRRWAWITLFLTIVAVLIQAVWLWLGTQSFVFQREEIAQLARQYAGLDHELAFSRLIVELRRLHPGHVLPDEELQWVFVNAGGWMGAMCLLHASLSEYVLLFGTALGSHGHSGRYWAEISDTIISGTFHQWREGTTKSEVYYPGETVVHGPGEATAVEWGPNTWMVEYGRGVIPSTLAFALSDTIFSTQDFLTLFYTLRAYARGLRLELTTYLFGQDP
Chain of cellular sigma receptors (C6 rat glioma cells) (Q9R0C9 whole entry): as above

`COc1ccc(CCN2CCN(CCCc3ccccc3)CC2)cc1OC` [11C-SA4503]: in series [1] (control (arachid oil), n = 4), the “SUV of 11C, C6 tumour” value came out at 0.83; the “SUV of 11C, Cerebellum” value stood at 1.66; the “SUV of 11C, Cerebral cortex” value is 1.50. Besides, in series [1] (setting [5]), the “SUV of 11C, C6 tumour” value is on record as 1.52; the “SUV of 11C, Cerebellum” value worked out at 2.41; the “SUV of 11C, Cerebral cortex” value turned out to be 2.38.
In the case of `C[C@]12CC[C@H](OS(=O)(=O)[O-])CC1=CC[C@@H]1[C@@H]2CC[C@]2(C)C(=O)CC[C@@H]12.[Na+]` [DHEA-S, dehydroepiandrosterone 3-sulphate sodium salt], in series [2], the “competition with 11C-SA4503 for binding to cellular sigma receptors” value (shortened to “competition with 11C-SA4503 for binding”) is listed as “no statistically significant effect”, the “reduction of 11C-SA4503 radioligand binding to C6 cells” value was “significant decrease” and the “rank order of potency as competitor of 11C-SA4503 binding” value (“rank order of potency” for short) is “progesterone > androstanolone = testosterone = allopregnanolone > DHEA-S”.
For `C[C@]12CCC(=O)C[C@@H]1CC[C@@H]1[C@@H]2CC[C@]2(C)[C@@H](O)CC[C@@H]12` [androstanolone, 5α-androstan-17β-ol-3-one], in series [2], the “competition with 11C-SA4503 for binding” value is “measurable competition” and the “rank order of potency” value is given as “progesterone > androstanolone = testosterone = allopregnanolone > DHEA-S”.
Turning to `CCCC(C)C1(CC)C(=O)NC(=O)NC1=O` (stereo not drawn) [pentobarbital], the “effect on plasma progesterone” value with Plasma progesterone is “decreased”. Further, the “inhibition of 11C-SA4503 binding to C6 cells” value in series [2] (up to 1 mM in normal medium) is listed as “did not result in any inhibition”. Further, in series [3] (prolonged pentobarbital anaesthesia (>3.5 h) vs short (<20 min)), the “effect on kinetics of 11C-SA4503 radioactivity in blood pool (right lung)” value is on record as “unaffected; also recorded: did not significantly affect”. In series [1] (setting [6]), the “effect on amount of 11C-SA4503 radioactivity in the liver (biodistribution)” value is on record as “significantly decreased”; the “effect on plasma levels of 11C-SA4503 radioactivity (biodistribution)” value is on record as “not changed”; the “effect on sigma ligand binding in C6 tumour, brain (cerebellum, cerebral cortex), bone, bone marrow, large intestine, blood cells and spleen (biodistribution)” value was “significant increase”. In addition, the “decline of endogenous steroid levels in the brain (progesterone, pregnenolone)” value in series [4] is on record as > 70%.
On to `CC(=O)[C@H]1CC[C@H]2[C@@H]3CCC4=CC(=O)CC[C@]4(C)[C@H]3CC[C@]12C` [progesterone], for which, in series [3] (setting [7]), the “effect on 11C-SA4503 tracer kinetics in blood pool (microPET)” value is “did not significantly affect; also recorded: not accompanied by any significant change” and the “effect on 11C-SA4503 tracer kinetics in brain (microPET)” value is reported as “did not significantly affect”. The “decrease of sigma ligand (11C-SA4503) binding in C6 tumour (biodistribution)” value in series [1] (progesterone 3 x 10 mg i.p. vs arachid oil, 60 min after tracer) came out at 31%.
As to `C[C@]12CC[C@H]3[C@@H](CCC4=CC(=O)CC[C@@]43C)[C@@H]1CC[C@@H]2O` [testosterone], in series [2], the “competition with 11C-SA4503 for binding” value is recorded as “measurable competition”, the “reduction of 11C-SA4503 radioligand binding to C6 cells” value is on record as 40% and the “rank order of potency” value is on record as “progesterone > androstanolone = testosterone = allopregnanolone > DHEA-S”.
